Experimental data from paper PMC3938390 (Biochemistry, 2013).
Read-outs that look alike come from different tables or passages of the source.

Key:
[1] = target: CB1 (Homo sapiens, UniProt P21554); assay type: binding
[2] = target: CB1^WT (Homo sapiens, UniProt P21554); conditions: [3H]CP55940 binding
[3] = target: C98A,C107ACB1^WT (Homo sapiens, UniProt P21554, C107A/C98A); conditions: [3H]CP55940 binding, N-terminal C98-C107 disulfide removed by mutation
[4] = CB1^WT treated with 10 mM DTT for 20 min prior to assay

Sequence of CB1^WT (P21554 whole entry): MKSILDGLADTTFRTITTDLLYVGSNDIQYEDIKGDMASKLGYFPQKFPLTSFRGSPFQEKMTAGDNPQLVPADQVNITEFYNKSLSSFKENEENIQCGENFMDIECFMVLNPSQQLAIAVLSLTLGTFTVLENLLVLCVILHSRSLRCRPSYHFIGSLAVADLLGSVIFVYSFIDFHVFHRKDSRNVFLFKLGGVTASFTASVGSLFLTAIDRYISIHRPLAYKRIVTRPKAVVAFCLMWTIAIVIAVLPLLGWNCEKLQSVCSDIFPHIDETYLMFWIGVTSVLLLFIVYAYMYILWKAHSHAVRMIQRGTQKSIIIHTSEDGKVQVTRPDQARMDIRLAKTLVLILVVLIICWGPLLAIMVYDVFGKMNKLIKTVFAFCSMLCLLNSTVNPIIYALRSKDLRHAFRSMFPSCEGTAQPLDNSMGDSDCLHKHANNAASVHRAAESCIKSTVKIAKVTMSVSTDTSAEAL
Sequence of C98A,C107ACB1^WT (P21554 whole entry C98A/C107A): as the sequence (P21554 whole entry) above, with C98A, C107A counted along it
Sequence of CB1 (P21554 whole entry): as the sequence (P21554 whole entry) above

SMILES | cooperativity factor α between orthosteric ligand and DTT [1] | allosteric cooperativity factor α for agonist binding [2, 4] | allosteric cooperativity factor α for agonist binding ([2]; untreated CB1^WT) | allosteric cooperativity factor α for agonist binding [3]
CCCCCCC(C)(C)c1ccc([C@@H]2C[C@H](O)CC[C@H]2CCCO)c(O)c1 [CP55940, (-)-cis-3-[2-hydroxy-4-(1,1-dimethyl-heptyl)phenyl]-trans-4-(3-hydroxypropyl)cyclohexanol] | 0.69 ± 0.08 | – | – | –
O=C(Nc1ccc(Cl)cc1)Nc1cccc(-c2cccc(N3CCCC3)n2)c1 [PSNCBAM-1, 1-(4-chlorophenyl)-3-[3-(6-pyrrolidin-1-ylpyridin-2-yl)phenyl]urea] | – | 5.9 ± 0.3 | 4.2 ± 0.2 | –
CCc1c(C(=O)NCCc2ccc(N3CCCCC3)cc2)[nH]c2ccc(Cl)cc12 [Org 27569] | – | 6.8 ± 0.3 | 4.9 ± 0.4 | 7.8 ± 0.5
